Data published in patent US20260262643A1, “HERBICIDAL BENZOXAZINES” (FMC CORPORATION, priority 2022, published 2026).

What was measured:
[1] = system: barnyardgrass; assay: Test A preemergence; assay type: in vivo, Echinochloa crusgalli; conditions: visual injury after 10 days, 0 to 100 scale, 0 is no effect, 100 is complete control
Source text: (§1) Seeds of plant species selected from barnyardgrass (Echinochloa crusgalli), blackgrass (Alopecurus myosuroides), corn (Zea mays), foxtail, giant (giant foxtail, Setaria faberi), goosegrass (Eleusine indica), kochia (Bassia scoparia), oat, wild (wild oat, Avena fatua), pigweed, palmer (palmer amaranth, palmer pigweed, Amaranthus palmeri), Pigweed, Redroot (redroot pigweed, Amaranthus retroflexus), ragweed (common ragweed, Ambrosia artemisiifolia), ryegrass, Italian (italian ryegrass, Lolium multiflorum), soybean (Glycine max), and wheat (Triticum aestivum) were planted into a blend of loam soil and sand and treated preemergence with a directed soil spray using test chemicals formulated in a non-phytotoxic solvent mixture which included a surfactant. At the same time, plants selected from these crops and weed species and also galium (catchweed bedstraw, Galium aparine) and horseweed (Erigeron canadensis) were planted in pots containing the same blend of loam soil and sand and treated with postemergence applications of test chemicals formulated in the same manner. Plants ranged in height from 2 to 10 cm and were in the one- to two-leaf stage for the postemergence treatment. Treated plants and untreated controls were maintained in a greenhouse for 10 days, after which time all treated plants were compared to untreated controls and visually evaluated for injury. Plant response ratings, summarized in Table A, are based on a 0 to 100 scale where 0 is no effect and 100 is complete control. A dash (-) response means no test result.

[2] = system: blackgrass; assay: Test A preemergence; assay type: in vivo, Alopecurus myosuroides; conditions: visual injury after 10 days, 0 to 100 scale, 0 is no effect, 100 is complete control
Outline: (§2)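 Visual injury ratings on a 0–100 scale (100 = complete control) versus untreated controls, taken 10 days after treatment in greenhouse. Preemergence: directed soil spray onto seeded loam/sand. Postemergence: foliar application at one- to two-leaf stage, plants 2–10 cm. Formulation: non-phytotoxic solvent plus surfactant.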

[3] = system: corn; assay: Test A preemergence; assay type: in vivo, Zea mays; conditions: visual injury after 10 days, 0 to 100 scale, 0 is no effect, 100 is complete control
Outline: as §2

[4] = system: foxtail, giant; assay: Test A preemergence; assay type: in vivo, Setaria faberi; conditions: visual injury after 10 days, 0 to 100 scale, 0 is no effect, 100 is complete control
Outline: as §2

[5] = system: kochia; assay: Test A preemergence; assay type: in vivo, Bassia scoparia; conditions: visual injury after 10 days, 0 to 100 scale, 0 is no effect, 100 is complete control
Outline: as §2

[6] = system: oat, wild; assay: Test A preemergence; assay type: in vivo, Avena fatua; conditions: visual injury after 10 days, 0 to 100 scale, 0 is no effect, 100 is complete control
Outline: as §2

[7] = system: pigweed, palmer; assay: Test A preemergence; assay type: in vivo, Amaranthus palmeri; conditions: visual injury after 10 days, 0 to 100 scale, 0 is no effect, 100 is complete control
Outline: as §2

[8] = system: ragweed; assay: Test A preemergence; assay type: in vivo, Ambrosia artemisiifolia; conditions: visual injury after 10 days, 0 to 100 scale, 0 is no effect, 100 is complete control
Outline: as §2

[9] = system: ryegrass, Italian; assay: Test A preemergence; assay type: in vivo, Lolium multiflorum; conditions: visual injury after 10 days, 0 to 100 scale, 0 is no effect, 100 is complete control
Outline: as §2

[10] = system: soybean; assay: Test A preemergence; assay type: in vivo, Glycine max; conditions: visual injury after 10 days, 0 to 100 scale, 0 is no effect, 100 is complete control
Outline: as §2

[11] = system: wheat; assay: Test A preemergence; assay type: in vivo, Triticum aestivum; conditions: visual injury after 10 days, 0 to 100 scale, 0 is no effect, 100 is complete control
Outline: as §2

[12] = system: barnyardgrass; assay: Test A postemergence; assay type: in vivo, Echinochloa crusgalli; conditions: postemergence, 10 days
Source text: as §1

[13] = system: blackgrass; assay: Test A postemergence; assay type: in vivo, Alopecurus myosuroides; conditions: postemergence, 10 days
Outline: as §2

[14] = system: corn; assay: Test A postemergence; assay type: in vivo, Zea mays; conditions: postemergence, 10 days
Outline: as §2

[15] = system: foxtail, giant; assay: Test A postemergence; assay type: in vivo, Setaria faberi; conditions: postemergence, 10 days
Outline: as §2

[16] = system: kochia; assay: Test A postemergence; assay type: in vivo, Bassia scoparia; conditions: postemergence, 10 days
Outline: as §2

[17] = system: oat, wild; assay: Test A postemergence; assay type: in vivo, Avena fatua; conditions: postemergence, 10 days
Outline: as §2

[18] = system: pigweed, palmer; assay: Test A postemergence; assay type: in vivo, Amaranthus palmeri; conditions: postemergence, 10 days
Outline: as §2

[19] = system: ragweed; assay: Test A postemergence; assay type: in vivo, Ambrosia artemisiifolia; conditions: postemergence, 10 days
Outline: as §2

[20] = system: ryegrass, Italian; assay: Test A postemergence; assay type: in vivo, Lolium multiflorum; conditions: postemergence, 10 days
Outline: as §2

[21] = system: soybean; assay: Test A postemergence; assay type: in vivo, Glycine max; conditions: 500 g ai/ha, postemergence, 10 days, visual injury, 0 to 100 scale (0 no effect, 100 complete control)
Outline: as §2

[22] = system: wheat; assay: Test A postemergence; assay type: in vivo, Triticum aestivum; conditions: postemergence, 10 days
Outline: as §2

[23] = system: galium; assay: Test A postemergence; assay type: in vivo, Galium aparine; conditions: postemergence, 10 days
Outline: as §2

[24] = system: horseweed; assay: Test A postemergence; assay type: in vivo, Erigeron canadensis; conditions: postemergence, 10 days
Outline: as §2

[25] = system: barnyardgrass; assay: Test B flooded paddy test; assay type: in vivo, Echinochloa crus-galli; conditions: 250 g ai/ha, Flood, 13 days, 0 to 100 scale (0 no effect, 100 complete control)
Outline: (§3)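 Each species was raised to the 2-leaf stage. At treatment, each pot received floodwater 3 cm deep, with the chemical delivered into the water. Greenhouse holding followed for 13 days, then percent control was estimated visually versus untreated pots.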

[26] = system: ducksalad; assay: Test B flooded paddy test; assay type: in vivo, Heteranthera limosa; conditions: 250 g ai/ha, Flood, 13 days, 0 to 100 scale (0 no effect, 100 complete control)
Outline: as §3

[27] = system: rice; assay: Test B flooded paddy test; assay type: in vivo, Oryza sativa; conditions: 250 g ai/ha, Flood, 13 days, 0 to 100 scale (0 no effect, 100 complete control)
Outline: as §3

[28] = system: sedge, umbrella; assay: Test B flooded paddy test; assay type: in vivo, Cyperus difformis; conditions: 250 g ai/ha, Flood, 13 days, 0 to 100 scale (0 no effect, 100 complete control)
Outline: as §3

[29] = 125 g ai/ha, 0 to 100 scale, 0 no effect, 100 complete control
[30] = 500 g ai/ha, visual injury, 0 to 100 scale (0 no effect, 100 complete control)

C=CCOc1ccc(-n2cnc(C(C)C)n2)cc1C(=O)N1C[C@H](C)Oc2c(Cl)cccc21 [Compound 110]
Plant response rating, Barnyardgrass ([1]; 125 g ai/ha): 50
Plant response rating, Barnyardgrass ([1]; 500 g ai/ha): 90
Plant response rating, Blackgrass ([2]; 125 g ai/ha): 40
Plant response rating, Blackgrass ([2]; 500 g ai/ha): 70
Plant response rating, Corn ([3]; 125 g ai/ha): 0
Plant response rating, Corn ([3]; 500 g ai/ha): 50
Plant response rating, Foxtail, Giant ([4]; 125 g ai/ha): 90
Plant response rating, Foxtail, Giant ([4]; 500 g ai/ha): 100
Plant response rating, Kochia ([5]; 125 g ai/ha): 0
Plant response rating, Kochia ([5]; 500 g ai/ha): 20
Plant response rating, Oat, Wild ([6]; 125 g ai/ha): 0
Plant response rating, Oat, Wild ([6]; 500 g ai/ha): 50
Plant response rating, Pigweed, Palmer ([7]; 125 g ai/ha): 90
Plant response rating, Pigweed, Palmer ([7]; 500 g ai/ha): 100
Plant response rating, Ragweed ([8]; 125 g ai/ha): 0
Plant response rating, Ragweed ([8]; 500 g ai/ha): 40
Plant response rating, Ryegrass, Italian ([9]; 125 g ai/ha): 70
Plant response rating, Ryegrass, Italian ([9]; 500 g ai/ha): 100
Plant response rating, Soybean ([10]; 125 g ai/ha): 40
Plant response rating, Soybean ([10]; 500 g ai/ha): 60
Plant response rating, Wheat ([11]; 125 g ai/ha): 20
Plant response rating, Wheat ([11]; 500 g ai/ha): 30
Barnyardgrass plant response rating [12, 29]: 20
Plant response rating, Barnyardgrass [12, 30]: 50
Blackgrass plant response rating [13, 29]: 0
Plant response rating, Blackgrass [13, 30]: 50
Corn plant response rating [14, 29]: 10
Plant response rating, Corn [14, 30]: 50
Foxtail, Giant plant response rating [15, 29]: 40
Plant response rating, Foxtail, Giant [15, 30]: 90
Kochia plant response rating [16, 29]: 70
Plant response rating, Kochia [16, 30]: 90
Oat, Wild plant response rating [17, 29]: 0
Plant response rating, Oat, Wild [17, 30]: 30
Pigweed, Palmer plant response rating [18, 29]: 40
Plant response rating, Pigweed, Palmer [18, 30]: 50
Ragweed plant response rating [19, 29]: 10
Plant response rating, Ragweed [19, 30]: 60
Ryegrass, Italian plant response rating [20, 29]: 20
Plant response rating, Ryegrass, Italian [20, 30]: 80
Plant response rating, Soybean [21]: 100
Wheat plant response rating [22, 29]: 10
Plant response rating, Wheat [22, 30]: 20
Galium plant response rating [23, 29]: 100
Plant response rating, Galium [23, 30]: 100
Horseweed plant response rating [24, 29]: 0
Plant response rating, Horseweed [24, 30]: 0
Plant response rating, Barnyardgrass [25]: 55
Plant response rating, Ducksalad [26]: 0
Plant response rating, Rice [27]: 0
Plant response rating, Sedge, Umbrella [28]: 65
